According to patent US12103924B2, “Mitogen-activated protein kinase kinase (MEK) degradation compounds and methods of use” (Icahn School of Medicine at Mount Sinai, priority 2020, dated 2024):

Columns and labels:
MEK2 = biological target: T1, MEK2 (Homo sapiens, UniProt P36507); assay: HotSpot kinase inhibition assay, MEK2; type: biochemical; details: MEK2 150 nM, ERK K52R substrate, 33P-ATP, normalized with DMSO
T1 construct: purchased Thermo Fisher Scientific PV3615

MEK1/2 [1] = assay: Western blot of MEK1/2 protein levels in HT-29 cells; type: cell-based; details: for MEK1 and MEK2 protein levels / MEK1 and MEK2 protein levels, concentration-dependent: 24 h; for MEK1 and MEK2 protein levels, time-dependent: 0.1 μM or 0.3 μM, harvested at indicated time points; for MEK1 and MEK2 protein levels, concentration-dependent: serial dilution, western blot
Protocol: Compound concentrations are 0.3 μM, 1 μM and 3 μM.
(§3) The indicated protein levels were determined by Western blots.
(§4) The sample was centrifuged at 12,000 g for 10 min at 4° C. to get supernatant as cell lysate. Protein concentrations were quantified using Pierce rapid gold BCA protein assay kit.

MEK1 = biological target: T2, MEK1 (Homo sapiens, UniProt Q02750); assay: HotSpot kinase inhibition assay, MEK1; type: biochemical; details: MEK1 100 nM, ERK K52R substrate, 33P-ATP, normalized with DMSO
T2 construct: purchased Thermo Fisher Scientific PV3303
T2 sequence (Q02750 whole entry): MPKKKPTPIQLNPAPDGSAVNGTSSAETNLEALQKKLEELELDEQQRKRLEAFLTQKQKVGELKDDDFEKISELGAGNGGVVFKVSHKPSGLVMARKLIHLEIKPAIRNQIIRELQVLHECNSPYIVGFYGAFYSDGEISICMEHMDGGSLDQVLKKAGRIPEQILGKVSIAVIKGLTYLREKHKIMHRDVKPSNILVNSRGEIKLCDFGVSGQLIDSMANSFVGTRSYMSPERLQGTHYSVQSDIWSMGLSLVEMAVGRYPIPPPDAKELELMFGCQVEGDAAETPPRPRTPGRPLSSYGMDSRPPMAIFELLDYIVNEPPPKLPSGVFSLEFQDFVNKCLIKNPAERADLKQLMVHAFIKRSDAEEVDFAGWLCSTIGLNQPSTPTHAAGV

MEK1 and MEK2 proteins = assay: Global proteome analysis of HT-29 cells; type: cell-based, human
Protocol: […] […] P values were calculated from the data of two technical replicates. (A) DMSO compared to CPD-031 treated samples; (B) CPD-034 compared to CPD-031 treated samples; (C) DMSO compared to CPD-034 treated samples.
Proteins outside the significance lines were labeled with pink or purple color (FDR=0.05, S0=1). P values were calculated from the data of two technical replicates.
Protein Extraction and Digestion. Cells with indicated treatments were harvested and lysed in lysis buffer (6 M guanidine hydrochloride, 100 mM Tris-HCl pH 8.0). Sonication (5 s on, 5 s off, 2×30 s) was performed to shear genome DNA. Lysate were centrifugated for 30 min at 3,500 g at 4° C. and the supernatant were transferred to a clean tube, diluted 50% with Milli-Q H2O, then precipitated by addition of cold acetone (four times the original volume), and placed at −20° C. overnight. Precipitated proteins were brought down at 20,000 g at 4° C. for 10 min, and washed with cold acetone after discarding the supernatant. The pellet was air-dried at RT for 5 min and solubilized with 50 mM Tris-HCl (PH 8.0), 8 M urea. Protein concentration was determined (BCA assay) and protein was reduced with 5 mM DTT (dithiothreitol), alkylated with 15 mM IAA (iodoacetamide) in the dark, then diluted with buffer 25 mM Tris (pH 8.0) and 1 mM CaCl2 (three times the original volume). The final urea concentration is 2 M. Trypsin was added into protein solution with 1:100 ratio (trypsin:protein), and digested 12-16 h or overnight at RT.
Mass Spectrometry Analysis. Peptides were cleaned up by C18 stage tips and the concentration was determined (Peptide assay, 23275, Thermo Fisher Scientific). The clean peptides were dissolved in 0.1% formic acid and analyzed on a Q-Exactive HF-X coupled with an Easy nanoLC 1200 (Thermo Fisher Scientific, San Jose, CA). 0.5 μg of peptides were loaded onto an Acclain PepMap RSLC C18 Column (250 mm×75 μm ID, C18, 2 μm, Thermo Fisher Scientific). […] A linear gradient of 5 to 30% buffer B over 110 min was executed at a 300 nl/min flow rate followed a ramp to 100% B in 5 min, and 15-min wash with 100% B, where buffer A was aqueous 0.1% formic acid, and buffer B was 80% acetonitrile and 0.1% formic acid.
LC-MS experiments were performed in a data-dependent mode with full MS (externally calibrated to a mass accuracy of <5 ppm and a resolution of 60,000 at m/z 200) followed by high energy collision-activated dissociation-MS/MS of the top 20 most intense ions with a resolution of 15,000 at m/z 200. High energy collision-activated dissociation-MS/MS was used to dissociate peptides at a normalized collision energy of 27 eV in the presence of nitrogen bath gas atoms. Dynamic exclusion was 30.0 seconds. Each sample was subjected to two technical LC-MS replicates.
MS Data Analysis. Mass spectra processing and peptide identification were performed on the Andromeda search engine in MaxQuant software (Version 1.6.0.16) against the human UniProt database (UP000005640). All searches were conducted with a defined modification of cysteine carbamidomethylation, with methionine oxidation and protein amino-terminal acetylation as dynamic modifications. Peptides were confidently identified using a target-decoy approach with a peptide false discovery rate (FDR) of 1% and a protein FDR of 1%. A minimum peptide length of 7 amino acids was required, maximally two missed cleavages were allowed, initial mass deviation for precursor ion was up to 7 ppm, and the maximum allowed mass deviation for fragment ions was 0.5 Da. Data processing and statistical analysis were performed on Perseus (Version 1.6.0.7). Protein quantitation was performed on duplicate runs, and a two-sample t-test statistics was used to report statistically significant expression fold-changes.

SK-MEL-28 cells = assay: WST-8 cell viability assay, SK-MEL-28; type: cell-based; details: for growth of cells: WST-8 3 d serial dilutions
Protocol: (§1) Cells were fixed and stained by crystal violet.
(§2) Cells (2000 cells per well) were seeded into 96-well microplates. After 20 h, cells were treated with 0.1% DMSO or indicated serial dilutions of compounds in duplicate or triplicate for 3 days. Cell viability was tested using MTT (M6494, Thermo Fisher Scientific) or WST-8 reagent (CK04, Dojindo). Briefly, 12 mM MTT was prepared in PBS or WST-8 reagent was warmed up to room temperature. 20 μL MTT or CCK-8 was then added to each well and the plates were kept in incubator at 37° C. for 3 h in the dark. For the WST-8 assay, signal was obtained after the incubation. For the MTT assay, cell medium was replaced with 200 μL of DMSO after the incubation, and then cell plates were kept at 37° C. for another 30 min. Absorbance signals for MTT and WST-8 were read at 540 nm and 450 nm respectively, with 690 nm as reference performed with Infinite F PLEX plate reader (TECAN, Morrisville, NC, USA). GI50 values were analyzed using GraphPad Prism 8 from the data of at least three independent experiments.

HT-29 cells = assay: WST-8 cell viability assay, HT-29; type: cell-based; details: for growth of cells: WST-8 3 d serial dilutions, clonogenic assay 10 d
Protocol: as §1, §2

pMEK and pERK [2] = assay: Western blot of MEK and ERK phosphorylation in SK-MEL-28 cells; details: SK-MEL-28 cells; for phosphorylation of MEK and ERK / pERK signaling, time-dependent: 0.1 μM or 0.3 μM, harvested at indicated time points; for phosphorylation of MEK and ERK proteins, concentration-dependent: serial dilution, 24 h, western blot
pMEK and pERK [3] = assay: Western blot of MEK and ERK phosphorylation in HT-29 cells; type: cell-based; details: HT-29 cells; for phosphorylation of MEK and ERK / pERK signaling, time-dependent: 0.1 μM or 0.3 μM, harvested at indicated time points; for phosphorylation of MEK and ERK proteins, concentration-dependent: serial dilution, 24 h, western blot
MEK1/2 [4] = assay: Western blot of MEK1/2 protein levels in SK-MEL-28 cells; details: SK-MEL-28 cells; for MEK1 and MEK2 protein levels, time-dependent: 0.1 μM or 0.3 μM, harvested at indicated time points; for MEK1 and MEK2 protein levels, concentration-dependent: serial dilution, 24 h, western blot
Protocol: as §3, §4

SUDHL1 cells = assay: WST-8 cell viability assay, SUDHL1; type: cell-based; details: WST-8, 3 d
Protocol: as §2

H3122 cells = assay: WST-8 cell viability assay, H3122; type: cell-based; details: WST-8, 3 d
Protocol: as §2

[5] = 8 h, 0.1 μM CPD-038 or CPD-052, 0.3 μM CPD-051 or CPD-097, versus 0.1% DMSO

T1 sequence (P36507 whole entry): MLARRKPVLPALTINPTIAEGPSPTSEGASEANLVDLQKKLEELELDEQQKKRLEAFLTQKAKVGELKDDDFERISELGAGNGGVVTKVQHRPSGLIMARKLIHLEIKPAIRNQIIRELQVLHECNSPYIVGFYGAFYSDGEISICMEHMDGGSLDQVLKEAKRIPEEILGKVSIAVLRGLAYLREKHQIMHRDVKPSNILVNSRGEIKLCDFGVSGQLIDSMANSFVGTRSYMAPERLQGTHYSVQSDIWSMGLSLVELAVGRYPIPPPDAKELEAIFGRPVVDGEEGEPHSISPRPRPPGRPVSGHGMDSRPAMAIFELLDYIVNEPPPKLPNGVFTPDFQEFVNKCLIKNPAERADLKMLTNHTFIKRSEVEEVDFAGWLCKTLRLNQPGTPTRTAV

| Structure (SMILES) | MEK2 kinase activity (MEK2) | MEK1 and MEK2 protein levels (MEK1/2 [1]; HT-29 cells, 0.1, 0.3, or 1 μM) | MEK1 kinase activity (MEK1) | protein levels in the global proteomic study (MEK1 and MEK2 proteins; 10 h, 0.1 μM, versus 0.1% DMSO) | growth of cells (SK-MEL-28 cells) | growth of cells (HT-29 cells) | protein levels in the global proteomic study (MEK1 and MEK2 proteins; [5]) | phosphorylation of MEK and ERK / pERK signaling, time-dependent (pMEK and pERK [2]) | phosphorylation of MEK and ERK proteins, concentration-dependent (pMEK and pERK [2]) | phosphorylation of MEK and ERK / pERK signaling, time-dependent (pMEK and pERK [3]) | phosphorylation of MEK and ERK proteins, concentration-dependent (pMEK and pERK [3]) | MEK1 and MEK2 protein levels, time-dependent (MEK1/2 [1]; HT-29 cells) | MEK1 and MEK2 protein levels (MEK1/2 [1]; HT-29 cells, 0.3 μM, 1 μM and 3 μM, western blot normalized with α-tubulin) | MEK1 and MEK2 protein levels, concentration-dependent (MEK1/2 [1]; HT-29 cells) | MEK1 and MEK2 protein levels, time-dependent (MEK1/2 [4]) | MEK1 and MEK2 protein levels, concentration-dependent (MEK1/2 [4]) | growth inhibition compared with AZ compound (SK-MEL-28 cells; WST-8, 3 d) | growth inhibition compared with AZ compound (SUDHL1 cells) | growth inhibition compared with AZ compound (HT-29 cells; WST-8, 3 d) | growth inhibition compared with AZ compound (H3122 cells) |
| --- | --- | --- | --- | --- | --- | --- | --- | --- | --- | --- | --- | --- | --- | --- | --- | --- | --- | --- | --- | --- |
| Cc1ncsc1-c1ccc([C@H](C)NC(=O)C2CC(O)CN2C(=O)[C@@H](NC(=O)CCCCCCCCCCNCCCONC(=O)c2ccc(F)c(F)c2Nc2ccc(I)cc2F)C(C)(C)C)cc1 (stereo in doubt) [CPD-034, (2R,4S)-1-((S)-20-(tert-butyl)-1-(3,4-difluoro-2-((2-fluoro-4-iodophenyl)amino)phenyl)-1,18-dioxo-3-oxa-2,7,19-triazahenicosan-21-oyl)-4-hydroxy-N—((S)-1-(4-(4-methylthiazol-5-yl)phenyl)ethyl)pyrrolidine-2-carboxamide] | inhibited | not | inhibited | did not significantly modulate |  |  |  |  |  |  |  |  |  |  |  |  |  |  |  |  |
| CN1C(=O)CCC(N2C(=O)c3ccc(NCCOCCOCCOCCOCCOCCNCCCONC(=O)c4ccc(F)c(F)c4Nc4ccc(I)cc4F)cc3C2=O)C1=O (stereo not shown) [CPD-097, 3,4-difluoro-2-((2-fluoro-4-iodophenyl)amino)-N-((1-((2-(1-methyl-2,6-dioxopiperidin-3-yl)-1,3-dioxoisoindolin-5-yl)amino)-3,6,9,12,15-pentaoxa-18-azahenicosan-21-yl)oxy)benzamide] |  |  |  |  | did not significantly suppress | did not significantly suppress | did not significantly modulate |  |  |  |  |  |  |  |  |  |  |  |  |  |
| O=C1CCC(N2C(=O)c3ccc(NCCOCCOCCOCCOCCOCCNCCCONC(=O)c4ccc(F)c(F)c4Nc4ccc(I)cc4F)cc3C2=O)C(=O)N1 (stereo not shown) [CPD-051, N-((1-((2-(2,6-dioxopiperidin-3-yl)-1,3-dioxoisoindolin-5-yl)amino)-3,6,9,12,15-pentaoxa-18-azahenicosan-21-yl)oxy)-3,4-difluoro-2-((2-fluoro-4-iodophenyl)amino)benzamide] |  |  |  |  | significantly suppressed | significantly suppressed | selectively degraded | inhibit | inhibited | inhibit | inhibited | degrade | significantly degraded | concentration-dependently reduced | degrade | concentration-dependently reduced |  |  |  |  |
| Cc1ncsc1-c1ccc([C@H](C)NC(=O)[C@H]2C[C@H](O)CN2C(=O)[C@@H](NC(=O)CCCCCCCCCCCNCCCCONC(=O)c2ccc(F)c(F)c2Nc2ccc(I)cc2F)C(C)(C)C)cc1 [CPD-052, (2R,4S)-1-((S)-22-(tert-butyl)-1-(3,4-difluoro-2-((2-fluoro-4-iodophenyl)amino)phenyl)-1,20-dioxo-3-oxa-2,8,21-triazatricosan-23-oyl)-4-hydroxy-N-((S)-1-(4-(4-methylthiazol-5-yl)phenyl)ethyl)pyrrolidine-2-carboxamide] |  |  |  |  | did not significantly suppress | did not significantly suppress | did not significantly modulate |  |  |  |  |  |  |  |  |  |  |  |  |  |
| Cc1ncsc1-c1ccc([C@H](C)NC(=O)[C@@H]2C[C@@H](O)CN2C(=O)[C@@H](NC(=O)CCCCCCCCCCN(C)CCCONC(=O)c2ccc(F)c(F)c2Nc2ccc(I)cc2F)C(C)(C)C)cc1 [CPD-037, (2S,4R)-1-((S)-20-(tert-butyl)-1-(3,4-difluoro-2-((2-fluoro-4-iodophenyl)amino)phenyl)-7-methyl-1,18-dioxo-3-oxa-2,7,19-triazahenicosan-21-oyl)-4-hydroxy-N—((S)-1-(4-(4-methylthiazol-5-yl)phenyl)ethyl)pyrrolidine-2-carboxamide] |  |  |  |  | significantly suppressed | significantly suppressed |  | inhibit | inhibit | inhibit | inhibit | degrade |  | degrade | degrade | degrade | more potent | more potent | more potent | more potent |
| Cc1ncsc1-c1ccc([C@H](C)NC(=O)[C@@H]2C[C@@H](O)CN2C(=O)[C@@H](NC(=O)CCCCCCCCCCCNCCCCONC(=O)c2ccc(F)c(F)c2Nc2ccc(I)cc2F)C(C)(C)C)cc1 [CPD-038, (2S,4R)-1-((S)-22-(tert-butyl)-1-(3,4-difluoro-2-((2-fluoro-4-iodophenyl)amino)phenyl)-1,20-dioxo-3-oxa-2,8,21-triazatricosan-23-oyl)-4-hydroxy-N—((S)-1-(4-(4-methylthiazol-5-yl)phenyl)ethyl)pyrrolidine-2-carboxamide] |  |  |  |  |  |  | selectively degraded | inhibit |  | inhibit |  | degrade |  |  | degrade |  |  | more potent |  | more potent |
